In publication PMC5890244, “Stimulus dependent diversity and stereotypy in the output of an olfactory functional unit” (Nature Communications, 2018):

Target: T1, M72 odorant receptor (olfr160) (Mus musculus, UniProt A1L3R1)
T1 construct: full-length native receptor in its own olfactory sensory neurons of gene-targeted M72-GFP mice (neonatal epithelium); GFP serves as cell marker
T1 sequence (A1L3R1 1-309): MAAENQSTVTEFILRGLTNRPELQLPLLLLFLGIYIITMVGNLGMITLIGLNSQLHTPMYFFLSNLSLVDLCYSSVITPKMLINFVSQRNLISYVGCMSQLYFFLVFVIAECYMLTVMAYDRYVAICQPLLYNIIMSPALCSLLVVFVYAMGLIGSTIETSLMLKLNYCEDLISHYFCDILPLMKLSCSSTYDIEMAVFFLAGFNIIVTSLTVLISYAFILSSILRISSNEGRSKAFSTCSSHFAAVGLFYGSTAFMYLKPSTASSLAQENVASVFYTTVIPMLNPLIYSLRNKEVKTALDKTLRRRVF
Assay: perforated patch clamp of dendritic knobs of M72-expressing OSNs, Hill fit
Type: cell-based
Settings: 20-23 °C, pH 7.4; native OSNs; odorant from DMSO stock by pressure ejection; lower end of range, strongest ligand
Text: perforated patch clamp of dendritic knobs of M72-expressing OSNs, Hill fit on M72 odorant receptor (olfr160) | 2HA is the strongest ligand yet identified for M72 | Normalized dose–response curves for seven M72 ligands fitted by the Hill equation

Q: `CC(=O)c1ccccc1O` [2HA, 2-hydroxyacetophenone] was tested. Which EC50 did it give?
A: 30 nM
